Patent US20250346597A1, “CONDENSED HETEROCYCLIC COMPOUNDS AS INHIBITOR OF DIACYLGLYCEROL KINASES” (BEONE MEDICINES I GMBH, priority 2023, published 2025)

How the values were obtained:
DGKα = DGKα (Homo sapiens (Human), UniProt P23743); assay: Biochemical DGK IC50 assay (ADP-Glo, lipid micelle substrate), DGKα; conditions: full length DGKα […], ATP 140 μM, DAG 80 μM; further: full length DGKα 7.5 nM
Protocol: (§1) Enzymatic reactions of DGKζ, DGKα and DGKδ were performed using ADP-Glo assay with lipid micelle substrate. […] Full length DGKα (D21-10BG, SignalChem) and full length DGKδ (D23-10G, SignalChem) were purchased. Lipid micelle was prepared by dissolving DAG (Sigma, 317505-10MG) and PS (Sigma, P7769-100MG) with chloroform which was furtherly removed by rotary evaporation. The resulted product was resuspended in buffer containing 25 mM HEPES pH 7.0, 0.5 mM EDTA and 160 mM Octyl P-D glucopyranoside by vigorous mixing and ultrasonic (IID, Scientz).
(§2) The inhibition activities testing for the compound disclosed herein were carried out at room temperature in assay buffer containing 50 mM HEPES, 10 mM MgCl2, 0.01% BSA, 0.1 mM Na3VO4, 0.005% Tween-20 and 0.01 mM CaCl2. Compounds in DMSO were dispensed into wells of a black 384 well plate (Corning 4514) using D300e digital dispenser (Tecan). […] 3 μL 2× enzyme solution was added to wells. […] After 1 hour reaction, 5 μL ADP-Glo reagent (Promga V9101) was added and incubated for 40 minutes. 10 μL Kinase Detection reagent was added and incubated for 30 minutes. Luminescence was measured on a microplate reader (PHERAstar FSX, BMG labtech). The IC50s are calculated based on inhibition of enzyme activity in the presence of increasing concentrations of compounds.

DGKζ = DGKζ (Homo sapiens (Human), UniProt Q13574); assay: Biochemical DGK IC50 assay (ADP-Glo, lipid micelle substrate), DGKζ; conditions: full length DGKζ 0.5 nM, ATP 140 μM, DAG 80 μM
Protocol: as §1, §2
Human His-TEV-DGK-zeta-pFastBac1 and human baculovirus samples was generated using the Bac-to-Bac baculovirus expression system (Invitrogen) according to the manufacturer's protocol. The DNA used for expression of DGK-zeta, have SEQ ID Nos: 1. Baculovirus amplification was achieved using infected SF9 cells at 1:2000 virus/cells ratios, and grown for 96 hours at 27° C. post-transfected.
The expression scaled up for each protein was carried out in the […] from CORNING. 4 L of 3×10^6 cells/mL Sf9 cells (Expression System, Invitrogen) grown in SF900™ II SFM insect medium (Expression System) was infected with virus stock at 1:200 virus/cells ratio, and grown for 48 hours at 27° C. post-transfection. The infected cell culture was harvested by centrifugation at 6000 rpm for 15 min 4° C. in a SORVALL LYNX6000 centrifuge. The cell pellets were stored at −80° C.
Full length human DGKζ produced as described above, was purified from Sf9 baculovirus-infected insect cell paste. The cells were lysed using sonication method, and the lysates were clarified by centrifugation.

Sequence of DGKζ (Q13574 other isoform, or with tags, fused parts or gaps): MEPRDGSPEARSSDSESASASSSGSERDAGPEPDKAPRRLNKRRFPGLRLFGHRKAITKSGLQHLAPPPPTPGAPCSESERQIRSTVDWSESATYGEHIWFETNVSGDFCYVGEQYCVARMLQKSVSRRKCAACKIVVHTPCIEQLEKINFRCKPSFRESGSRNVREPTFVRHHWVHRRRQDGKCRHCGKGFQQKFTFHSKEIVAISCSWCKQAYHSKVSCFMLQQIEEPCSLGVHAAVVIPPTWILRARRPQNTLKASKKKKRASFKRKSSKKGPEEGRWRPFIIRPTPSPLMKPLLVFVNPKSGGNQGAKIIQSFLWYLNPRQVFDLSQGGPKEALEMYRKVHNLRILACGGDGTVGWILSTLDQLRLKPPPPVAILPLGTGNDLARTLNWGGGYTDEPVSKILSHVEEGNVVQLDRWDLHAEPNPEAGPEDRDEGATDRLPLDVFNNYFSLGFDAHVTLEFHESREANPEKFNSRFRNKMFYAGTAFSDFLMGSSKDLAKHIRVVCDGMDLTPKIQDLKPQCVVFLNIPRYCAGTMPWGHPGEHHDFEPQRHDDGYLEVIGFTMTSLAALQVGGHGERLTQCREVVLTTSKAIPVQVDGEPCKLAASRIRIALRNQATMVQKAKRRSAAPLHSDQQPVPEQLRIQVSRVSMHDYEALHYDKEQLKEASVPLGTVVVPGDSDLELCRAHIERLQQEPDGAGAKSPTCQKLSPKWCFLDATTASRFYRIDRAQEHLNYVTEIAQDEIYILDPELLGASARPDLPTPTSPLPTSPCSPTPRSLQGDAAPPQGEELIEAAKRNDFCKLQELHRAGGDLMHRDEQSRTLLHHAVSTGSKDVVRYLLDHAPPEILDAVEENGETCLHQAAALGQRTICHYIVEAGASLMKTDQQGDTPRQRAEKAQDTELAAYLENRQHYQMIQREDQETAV
Sequence of DGKα (P23743 whole entry): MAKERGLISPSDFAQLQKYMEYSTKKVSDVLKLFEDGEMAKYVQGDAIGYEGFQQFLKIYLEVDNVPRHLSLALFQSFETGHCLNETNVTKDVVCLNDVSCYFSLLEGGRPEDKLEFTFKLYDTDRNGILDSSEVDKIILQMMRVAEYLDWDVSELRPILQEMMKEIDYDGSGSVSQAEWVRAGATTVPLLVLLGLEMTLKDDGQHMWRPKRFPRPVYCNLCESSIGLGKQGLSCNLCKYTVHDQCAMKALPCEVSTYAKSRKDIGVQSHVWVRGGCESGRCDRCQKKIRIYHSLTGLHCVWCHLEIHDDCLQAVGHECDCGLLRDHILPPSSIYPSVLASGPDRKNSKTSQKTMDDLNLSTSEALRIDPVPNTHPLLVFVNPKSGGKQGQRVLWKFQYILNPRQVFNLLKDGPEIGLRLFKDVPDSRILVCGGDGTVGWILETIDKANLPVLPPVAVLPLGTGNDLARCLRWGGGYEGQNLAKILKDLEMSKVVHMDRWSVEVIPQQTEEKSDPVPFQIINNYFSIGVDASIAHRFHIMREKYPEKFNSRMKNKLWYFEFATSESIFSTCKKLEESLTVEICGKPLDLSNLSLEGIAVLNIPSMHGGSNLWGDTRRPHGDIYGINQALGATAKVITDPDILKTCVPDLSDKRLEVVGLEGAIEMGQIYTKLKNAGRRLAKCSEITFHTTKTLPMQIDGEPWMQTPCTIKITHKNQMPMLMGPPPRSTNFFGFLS

Row | SMILES | IC50 (DGKα) | IC50 (DGKζ)
1 | CC[C@H]1CN(C(C)c2ccc(C(=O)N3CC(OC)C3)cc2)[C@H](CC)CN1c1cc(=O)n(C)c2cn(CC#N)nc12 (single isomer, unassigned) [Compound A1a] | 23 nM | 1440 nM
2 | CC[C@H]1CN(C(C)c2ccc(C(=O)N3CC(OC)C3)cc2)[C@H](CC)CN1c1cc(=O)n(C)c2cn(CC#N)nc12 (single isomer, unassigned) [Compound A1b] | 734 nM | > 10000 nM
3 | CC[C@H]1CN(C(C)c2cc(F)c(C(=O)N(C)C)c(F)c2)[C@H](CC)CN1c1cc(=O)n(C)c2cn(CC#N)nc12 (single isomer, unassigned) [Compound A3a] | 13600 nM | 227 nM
4 | CC[C@H]1CN(C(C)c2cc(F)c(C(=O)N(C)C)c(F)c2)[C@H](CC)CN1c1cc(=O)n(C)c2cn(CC#N)nc12 (single isomer, unassigned) [Compound A3b] | 5900 nM | 551 nM
5 | CC[C@H]1CN(C(C)c2ccc(C(=O)N(C)C)c(F)c2)[C@H](CC)CN1c1cc(=O)n(C)c2cn(CC#N)nc12 (single isomer, unassigned) [Compound A4a] | 2690 nM | 569 nM
6 | CC[C@H]1CN(C(C)c2ccc(C(=O)N(C)C)c(F)c2)[C@H](CC)CN1c1cc(=O)n(C)c2cn(CC#N)nc12 (single isomer, unassigned) [Compound A4b] | 4840 nM | 3170 nM
7 | CC[C@H]1CN(C(C)c2ccc(OC(C)C)cn2)[C@H](CC)CN1c1cc(=O)n(C)c2cn(CC#N)nc12 (single isomer, unassigned) [Compound A5la] | 26 nM | 138 nM
8 | CC[C@H]1CN(C(C)c2ccc(OC(F)F)cc2)[C@H](CC)CN1c1cc(=O)n(C)c2cn(CC#N)nc12 (single isomer, unassigned) [Compound A19a] | 22 nM | 130 nM
9 | CC[C@H]1CN(C(C)c2ccc(OC(F)F)cc2)[C@H](CC)CN1c1cc(=O)n(C)c2cn(CC#N)nc12 (single isomer, unassigned) [Compound A19b] | 289 nM | 4900 nM
10 | CC[C@H]1CN(C(C)c2ccc(OC3COC3)c(C)c2)[C@H](CC)CN1c1cc(=O)n(C)c2cn(CC#N)nc12 (single isomer, unassigned) [Compound A21a] | 2890 nM | 1470 nM
11 | CC[C@H]1CN(C(C)c2ccc(OC3COC3)c(C)c2)[C@H](CC)CN1c1cc(=O)n(C)c2cn(CC#N)nc12 (single isomer, unassigned) [Compound A21b] | > 150000 nM | > 10000 nM
12 | CC[C@H]1CN(C(C)c2ccc(OC3COC3)c(F)c2)[C@H](CC)CN1c1cc(=O)n(C)c2cn(CC#N)nc12 (single isomer, unassigned) [Compound A23a] | 2350 nM | 3740 nM
13 | CC[C@H]1CN(C(C)c2ccc(OC3COC3)c(F)c2)[C@H](CC)CN1c1cc(=O)n(C)c2cn(CC#N)nc12 (single isomer, unassigned) [Compound A23b] | 138 nM | 534 nM
14 | CC[C@H]1CN(C(C)c2cc(F)c(CN(C)C)c(F)c2)[C@H](CC)CN1c1cc(=O)n(C)c2cn(CC#N)nc12 (single isomer, unassigned) [Compound A25a] | 3380 nM | 246 nM
15 | CC[C@H]1CN(C(C)c2cc(F)c(CN(C)C)c(F)c2)[C@H](CC)CN1c1cc(=O)n(C)c2cn(CC#N)nc12 (single isomer, unassigned) [Compound A25b] | 6020 nM | 2200 nM
16 | CC[C@H]1CN(C(C)c2ccc(CN3CCCC3)cc2)[C@H](CC)CN1c1cc(=O)n(C)c2cn(CC#N)nc12 (single isomer, unassigned) [Compound A26a] | 1440 nM | 4090 nM
17 | CC[C@H]1CN(C(C)c2ccc(CN3CCCC3)cc2)[C@H](CC)CN1c1cc(=O)n(C)c2cn(CC#N)nc12 (single isomer, unassigned) [Compound A26b] | 24700 nM | > 10000 nM
18 | CC[C@H]1CN(C(C)c2ccc(OC)cc2)[C@H](CC)CN1c1cc(=O)n(C)c2cn(CC#N)nc12 (single isomer, unassigned) [Compound A34a] | 37 nM | 75 nM
19 | CC[C@H]1CN(C(C)c2ccc(OC)cc2)[C@H](CC)CN1c1cc(=O)n(C)c2cn(CC#N)nc12 (single isomer, unassigned) [Compound A34b] | 596 nM | 2940 nM

Row | SMILES | IC50 (DGKα) | IC50 (DGKζ)
20 | CC[C@H]1CN(C(C)c2nc(C)c(C)s2)[C@H](CC)CN1c1cc(=O)n(C)c2cn(CC#N)nc12 (single isomer, unassigned) [Compound A35a] | 131 nM | 234 nM
21 | CC[C@H]1CN(C(C)c2nc(C)c(C)s2)[C@H](CC)CN1c1cc(=O)n(C)c2cn(CC#N)nc12 (single isomer, unassigned) [Compound A35b] | > 150000 nM | 2420 nM
22 | CC[C@H]1CN(C(C)c2nc3c(s2)CCCC3)[C@H](CC)CN1c1cc(=O)n(C)c2cn(CC#N)nc12 (single isomer, unassigned) [Compound A36a] | 164 nM | 57 nM
23 | CC[C@H]1CN(C(C)c2nc3c(s2)CCCC3)[C@H](CC)CN1c1cc(=O)n(C)c2cn(CC#N)nc12 (single isomer, unassigned) [Compound A36b] | 2110 nM | 946 nM
24 | CC[C@H]1CN(C(C)c2ccc(C3CC3)nc2)[C@H](CC)CN1c1cc(=O)n(C)c2cn(CC#N)nc12 (single isomer, unassigned) [Compound A38a] | 810 nM | 126 nM
25 | CC[C@H]1CN(C(C)c2ccc(C3CC3)nc2)[C@H](CC)CN1c1cc(=O)n(C)c2cn(CC#N)nc12 (single isomer, unassigned) [Compound A38b] | 2350 nM | 1180 nM
26 | CC#CCn1cc2c(n1)c(N1C[C@@H](CC)N(C(C)c3ccc(C4CC4)nc3)C[C@@H]1CC)cc(=O)n2C (single isomer, unassigned) [Compound A39a] | 33 nM | 464 nM
27 | CC#CCn1cc2c(n1)c(N1C[C@@H](CC)N(C(C)c3ccc(C4CC4)nc3)C[C@@H]1CC)cc(=O)n2C (single isomer, unassigned) [Compound A39b] | 237 nM | 2360 nM
28 | CC[C@H]1CN(C(C)c2ccc(COC)nc2)[C@H](CC)CN1c1cc(=O)n(C)c2cn(CC#N)nc12 (single isomer, unassigned) [Compound A42a] | 1960 nM | 315 nM
29 | CC[C@H]1CN(C(C)c2ccc(COC)nc2)[C@H](CC)CN1c1cc(=O)n(C)c2cn(CC#N)nc12 (single isomer, unassigned) [Compound A42b] | 6640 nM | 5060 nM
30 | CC[C@H]1CN(C(C)c2ccc(C3CC3)nc2F)[C@H](CC)CN1c1cc(=O)n(C)c2cn(CC#N)nc12 (single isomer, unassigned) [Compound A45a] | 202 nM | 30 nM
31 | CC[C@H]1CN(C(C)c2ccc(C3CC3)nc2F)[C@H](CC)CN1c1cc(=O)n(C)c2cn(CC#N)nc12 (single isomer, unassigned) [Compound A45b] | 728 nM | 865 nM
32 | CC[C@H]1CN(C(C)c2ccc(C(C)(C)F)nc2)[C@H](CC)CN1c1cc(=O)n(C)c2cn(CC#N)nc12 (single isomer, unassigned) [Compound A46a] | 406 nM | 6.4 nM
33 | CC[C@H]1CN(C(C)c2ccc(C(C)(C)F)nc2)[C@H](CC)CN1c1cc(=O)n(C)c2cn(CC#N)nc12 (single isomer, unassigned) [Compound A46b] | 913 nM | 396 nM
34 | CC[C@H]1CN(C(C)c2cnc(C3CC3)cc2F)[C@H](CC)CN1c1cc(=O)n(C)c2cn(CC#N)nc12 (single isomer, unassigned) [Compound A47a] | 1190 nM | 88 nM
35 | CC[C@H]1CN(C(C)c2cnc(C3CC3)cc2F)[C@H](CC)CN1c1cc(=O)n(C)c2cn(CC#N)nc12 (single isomer, unassigned) [Compound A47b] | 3520 nM | 1120 nM
36 | CC[C@H]1CN(C(C)c2ccc(C3CC3)nc2)[C@H](CC)CN1c1c(F)c(=O)n(C)c2cn(CC#N)nc12 (single isomer, unassigned) [Compound A48a] | 240 nM | 59 nM
37 | CC[C@H]1CN(C(C)c2ccc(N)nc2)[C@H](CC)CN1c1cc(=O)n(C)c2cn(CC#N)nc12 (single isomer, unassigned) [Compound A187b] | 11900 nM | 
